Data as given in patent publication US10533034B2, “Human iNKT cell activation using glycolipids” (ACADEMIA SINICA, priority 2014, dated 2020).

Experiments:
[1] = biological target: Vα24+/Vβ11+ iNKT TCR (Homo sapiens, UniProt A0A075B6N4+A0A0B4J240+P15813); test: Binding avidity of hCD1d-loaded glycolipids with Vα24+ iNKT cells (ternary interaction); details: for Kd: in complex with hCD1d, Scatchard transformation, read-out: KD of ternary complex, hCD1d-glycolipid toward Vα24+/Vβ11+ iNKT TCR
Description: (3A) DN3A4-1.2 Vα14+ iNKT hybridoma cells and (3B) 7DW8-5-expanded Vα24^+ iNKT cells were incubated with various concentrations of the indicated dimeric mCD d-glycolipid and hCD1d-glycolipid complexes for 30 min at 4° C., respectively. The level of bound complexes at the indicated concentration was detected by anti-mIgG1 secondary antibody and analyzed by flow cytometry. The relationship between the binding percentage and the concentration of CD1ddi-glycolipids complex was plotted in mice (3A) and humans (3B). KD values in mice (3C) and humans (3D) were calculated from Scatchard transformation of the plot (3A) and 3B), respectively. Assay was performed in duplicates. Binding avidity of human CD1d-glycolipid complexes to Vα24^+ iNKT cells expanded by 7DW8-5 at 100 ng/ml was determined as described previously.^19 Next, we measured the ternary interaction between CD1d-glcolipid complex and the iNKT TCR in mice and humans. Different concentrations of mCD1d^di-glycolipid and hCD1d^di-glycolipid complexes were incubated with fixed amounts of DN3A4-1.2 murine iNKT hybridoma cells and human Vα24+/Vβ11^+ iNKT cells, respectively. The level of bound complexes at the indicated concentration was detected by anti-mIgG1 secondary antibody and analyzed by flow cytometry (FIGS. 3A and 3B). The KD of the ternary complex was calculated from the Scatchard transformation of the plots in FIGS. 3A and 3B using GraphPad Prism software. […] This was consistent with the observation that higher percentages of C1-pulsed splenocytes were stained by the mCD1d-7DW8-5 complex (36.2±5.0%) than mCD1d-7DW8-5-Glc complex (17.1±0.8%) (FIG. 11).

[2] = test system: mCD1d dimer; test: Binding strength of the binary complex between mCD1d and glycolipid (L363 antibody ELISA); set-up: species or system mouse
Description: (10A, 10B) Different concentrations of mCD1d-glycolipid complexes coated on the ELISA plate were incubated with the saturated amount of L363 antibody conjugated with biotin, followed by streptavidin-HRP detection and ELISA measurement. (10A) The relationship between OD values reflecting L363 antibody binding and the concentration of CD1ddi-glycolipids complex was plotted. (10B) The dissociation constant (KD) between L363 antibody and the indicated mCD1d-glycolipid complex was calculated as described in Materials and methods. (10C) The relationship between OD values reflecting L363 antibody binding and the concentration of glycolipids was plotted. (10D) KD values of the binary complex were calculated from the linear regression of the Scatchard transformation of the L363 antibody binding curve (10C).
Different concentrations of mCD1d^di-glycolipid complexes coated on the ELISA plate were incubated with the saturated amounts of L363 antibody (BioLegend) conjugated with biotin, followed by streptavidin-HRP detection and ELISA measurement. The KD between L363 antibody and the indicated mCD1d^di-glycolipid complex was calculated from the linear regression of the Scatchard transformation of the L363 antibody binding curve using GraphPad Prism software. […] Next, the KD of the binary complex was determined as follows. […]

[3] = test system: B6 wild type mice; test: Murine serum cytokine/chemokine secretion after i.v. glycolipid, wild type mice; format: in vivo, mouse
Description: B6 wild type mice were i.v. injected with 7DW8-5-Glc at 0.1 or 1 μg/mouse. Sera collected at 2 h and 18 h post-injection were analyzed for chemokine secretions such as IP-10 (6A), KC (6B), MCP-1 (6C), and MIP-1α (6D). These chemokines peaked at 2 hr post-injection.
B6 wild type and Jα18 knockout mice were i.v. injected with the indicated glycolipids (1 μg/mouse) or vehicle. Sera collected at 2 h and 18 h post-injection were analyzed for cytokines like IL-2 (7A), IL-6 (7B), GM-CSF (7C) and TNFα (7D) as well as chemokines such as IP-10 (7E), MIG (7F), KC (7G) and MCP-1 (7H). Only MIG peaked at 18 hr post-injection, while the others peaked at 2 hr post-injection.
All the glycolipids were dissolved in 100% DMSO at a concentration of 1-2 mg/ml. For in vivo experiments, all compounds were diluted to 10 μg/ml in saline just before injection of 100 μl diluted glycolipid or 100 μl 1% DMSO into mice. Pathogen-free C57BL/6 female mice aged 6-12 weeks were obtained from the National Laboratory Animal Center (Taipei, Taiwan). Jα18 knockout (KO) B6 mice were the gifts from Dr. Masaru Taniguchi (RIKEN Research Center for Allergy and Immunology, Yokohama, Japan). All the mice were maintained in pathogen free vivarium of Institute of Cellular and Organismic Biology, Academia Sinica (Taipei, Taiwan).
B6 WT or Jα18 KO mice were intravenously injected with vehicle or glycolipids at 0.1 or 1 μg/mouse. Serum was collected at 2 and 18 h after injection for measurement of cytokines/chemokines by Beadlyte® Mouse Cytokine kit (Millipore, N.Y.) and read by a Luminex® 200™ system (Luminex, Austin, Tex.).
Previously, 0.1 μg/mouse of 7DW8-5 was sufficient for immune stimulation,^19 but higher dosage (1 μg/mouse) was required for the glucose analog 7DW8-5-Glc to induce immune responses (FIG. 6). Thus, the biological activities of newly synthesized glycolipids were tested in B6 mice 2 and 18 hr after i.v. injection of glycolipids at 1 μg/mouse. […] As compared to GSLs with αGlc, GSLs with αGal induced higher levels of cytokines and chemokines, including IFN-γ, IL-2, IL-4, IL-6, GM-CSF, TNFα and IP-10.

Kd [1] | staining of human iNKT cells with CD1d-glycolipid dimer [1] | SMILES | binding avidity to mCD1d dimer, fold greater than αGalCer [2] | levels of KC, MCP-1, IP-10 and MIG chemokines induced ([3]; 1 μg/mouse i.v., 2 and 18 hr) | levels of Th1 and Th2 cytokines induced ([3]; 1 μg/mouse i.v., 2 and 18 hr) | dosage required to induce immune responses ([3]; i.v., sera 2 h and 18 h) | induction of serum cytokines/chemokines ([3]; 1 μg/mouse i.v., 2 and 18 hr)
0.777 ± 0.022 nM |  | CCCCCCCCCCCCCC[C@@H](O)[C@@H](O)[C@H](CO[C@H]1O[C@H](CO)[C@H](O)[C@H](O)[C@H]1O)NC(=O)CCCCCCCCCCc1ccc(F)cc1 [Compound 7DW8-5, reference compound] | ~20 fold |  |  |  | 
0.481 ± 0.008 nM |  | CC[C@@H](O)[C@@H](O)[C@H](CO[C@H]1OC(CO)[C@@H](O)C(O)C1O)NC(=O)Cc1ccc(F)cc1 (stereo partly drawn) [Compound 7DW8-5-Glc] | ~20 fold | relatively high levels | very low levels | 1 μg/mouse | 
 | lack of staining | CCCCCCCCCCCCCC[C@@H](O)[C@@H](O)[C@H](CO[C@H]1O[C@H](CO)[C@@H](O)[C@H](O)[C@@H]1O)NC(=O)CCCCCCCCCCc1ccc(F)cc1 [Compound 7DW8-5-Man] |  |  |  |  | failed to induce any cytokines/chemokines
